The first experiment has as its target Glutamate NMDA receptor. Kind of experiment: Displacement of [3H]CPP from N-methyl-D-aspartate glutamate receptor in rat brain membrane. Format: cell membranes. A general note: Loss of bound radioactivity is the signal in a displacement assay; it reports binding, not function.
Take `NC(CCCP(=O)(O)O)C(=O)O` (configuration not stated): the IC50 came out at 0.28 µM. In turn, `O=C(O)C1NCCC2CCC(P(=O)(O)O)CC21` (configuration not stated) registered an IC50 of 5.6 µM.

Take `N[C@@]1(C(=O)O)CC[C@H](C(=O)O)C1`: the IC50 was 10 µM. Compound `NC(CCCCCP(=O)(O)O)C(=O)O` (configuration not stated) [AP-7] showed an IC50 of 0.77 µM. The compound `N[C@H](C(=O)O)[C@H]1C[C@H]1C(=O)O` gave an IC50 of 10 µM. Same read-out and setting: in the case of `CC([C@H]1CCN[C@H](C(=O)O)C1)P(=O)(O)O` (some centres not stated) it was 0.8 µM. The compound `O=C(O)C1CN(CCCP(=O)(O)O)C(=O)CN1` (configuration not stated) showed a 50% inhibitory concentration (IC50) of 32 µM. Consider `NC(CCP(=O)(O)O)C(=O)O` (configuration not stated), for which the IC50 is above 100 µM. `NC(C(=O)O)c1cc(CP(=O)(O)O)cc(-c2ccccc2)c1` (configuration not stated): the IC50 was 50 µM. Take `N[C@H](C(=O)O)[C@@H]1C[C@@H]1C(=O)O`: the IC50 was below 0.1 µM. In turn, `N[C@@H](CNCP(=O)(O)O)C(=O)O` displayed an IC50 of 4.3 µM.

`NC(C(=O)O)c1cccc(C(=O)O)c1` (configuration not stated) registered an IC50 of 25 µM. In turn, `O=C(O)CNC/C=C/CP(=O)(O)O` had an IC50 of 1.2 µM. On to `O=C(O)C1NCCc2ccc(CP(=O)(O)O)cc21` (configuration not stated), for which the IC50 came out at 37.2 µM. For `O=C(O)C1NCCc2cc(CP(=O)(O)O)ccc21` (configuration not stated), the IC50 worked out at 61 µM. This IC50 lies about 1.6-fold higher than the previous one. On the same count and under the same terms, in the case of `N[C@@H](CC(=O)O)C(=O)O` [ASPARTIC ACID] it was 10 µM; in that of `O=C(O)C1CN(Cc2ccccc2P(=O)(O)O)CCN1` (configuration not stated), above 100 µM; in that of `NC(Cc1cccc(CP(=O)(O)O)c1)C(=O)O` (configuration not stated), 3.3 µM.

The compound `NC(CC(=O)NCP(=O)(O)O)C(=O)O` (configuration not stated) returned an IC50 of 2.8 µM. This IC50 and that of the compound before are within 1.5-fold of each other. `O=C(O)CCc1cccc2c1CCNC2C(=O)O` (configuration not stated) had an IC50 of 14.5 µM. Compound `O=C(O)[C@H]1CN(C(c2ccccc2)P(=O)(O)O)CCN1` (some centres not stated) had a concentration for half-maximal inhibition (IC50) above 13.3 µM. Compound `O=C1CN(CCCP(=O)(O)O)CC(C(=O)O)N1` (configuration not stated) had an IC50 of 30 µM.

As for `N[C@H](CC(=O)O)C(=O)O` [D-ASPARTATE], the IC50 came to 10 µM. For `NC(C(=O)O)c1ccc(P(=O)(O)O)cc1` (configuration not stated), the IC50 was above 100 µM.

In the case of `O=C(O)C1CN(Cc2ccccc2CP(=O)(O)O)CCN1` (configuration not stated), the IC50 was above 100 µM. On to `NC(CCCCP(=O)(O)O)C(=O)O` (configuration not stated), for which the IC50 is 42 µM. This counts as double-digit micromolar. In turn, `Cc1c(CP(=O)(O)O)ccnc1C(=O)O` had an IC50 above 100 µM. Compound `NC(CCCCC(N)C(=O)O)C(=O)O` (configuration not stated) displayed an IC50 above 100 µM. Still for that read-out and setting: then `O=C(O)CNCc1ccc(CP(=O)(O)O)cc1`, with 5.2 µM.

The target of a further experiment is Glutamate NMDA receptor. Kind of experiment: Compound was evaluated for its ability to displace [3H]Glu/[3H]-AP5 from rat brain membrane. Format: tissue-based.
In turn, `O=C(O)c1cccnc1C(=O)O` [QUINOLINIC ACID] gave an IC50 of 100 µM.

As to `O=C(O)[C@H]1NCCC[C@H]1C(=O)O`, the IC50 amounted to 100 µM. Still for that read-out and setting: then `C=C(C)[C@@H]1CN[C@@H](C(=O)O)[C@@H]1CC(=O)O`, with 100 µM; and `O=C(O)[C@H]1CCCN[C@@H]1C(=O)O`, with 10 µM.

`O=C(O)[C@H]1CCN[C@H](C(=O)O)C1`: the IC50 worked out at 100 µM. Same read-out and setting: in the case of `Cc1o[nH]c(=O)c1C(N)C(=O)O` (configuration not stated) it was 110 µM.

In the next experiment the target is T1, Glutamate NMDA receptor (Rattus norvegicus) (UniProt P35439+Q00959+Q00960+Q00961+Q62645+Q8VHN2+Q9R1M7). The experiment can be described thus: Ability to displace [3H]CPP from N-methyl-D-aspartate glutamate receptor in rat brain membrane was evaluated at 10e-4 M. Format: cell membranes.
The compound `O=C(O)C1NCCc2c1cccc2P(=O)(O)O` (configuration not stated) showed an inhibition of 0%. `O=C(O)C1NCCc2ccc(CCP(=O)(O)O)cc21` (configuration not stated) gave an inhibition of 22%. Compound `NC(Cc1ccc(P(=O)(O)O)cc1)C(=O)O` (configuration not stated) showed an inhibition of 10%.

For `NC(Cc1ccc(CP(=O)(O)O)cc1)C(=O)O` (configuration not stated), the inhibition worked out at 1%.

Another experiment concerns the target Glutamate NMDA receptor. The experiment can be described thus: Ability to displace [3H]CPP from NMDA receptor in rat brain membrane. Format: cell membranes.
`NC(C(=O)O)C1CCC(CP(=O)(O)O)CC1` (configuration not stated) gave an IC50 of 13 µM. In other words, the double-digit micromolar range. Still for that read-out and setting: then `O=C(O)CNCc1cccc(P(=O)(O)O)c1`, with above 100 µM; and `C/C(=C\C(N)C(=O)O)CP(=O)(O)O` (configuration not stated) [CGP-37849], with 0.035 µM. Compound `NC(Cc1ccccc1CP(=O)(O)O)C(=O)O` (configuration not stated) had an IC50 of 8.4 µM. Compared with the last compound, the IC50 is about 240-fold higher. On to `NC(C(=O)O)c1ccc(CP(=O)(O)O)cc1` (configuration not stated), for which the IC50 was determined as 0.99 µM. `NC(C(=O)O)c1cccc(CCP(=O)(O)O)c1` (configuration not stated) registered a half-inhibitory concentration (IC50) above 100 µM.

`O=C(O)[C@@H]1C[C@H](CP(=O)(O)O)CCN1` [SELFOTEL]: the IC50 came to 0.054 µM.

With `NC(C/C=C/P(=O)(O)O)C(=O)O` (configuration not stated), the IC50 was above 10 µM. As to `NC(C(=O)O)c1ccc(CCP(=O)(O)O)cc1` (configuration not stated), the IC50 is above 100 µM. Same read-out and setting: then `O=C(O)C1Cc2c(CCP(=O)(O)O)cccc2CN1` (configuration not stated), with 0.27 µM; and `Cc1cc(C(N)C(=O)O)c(C)cc1CP(=O)(O)O` (configuration not stated), with 21 µM; and `NC(Cc1cccc(C(Br)P(=O)(O)O)c1)C(=O)O` (configuration not stated), with 50 µM. As for `NC(C(=O)O)c1ccc(CP(=O)(O)O)cc1Br` (configuration not stated), the IC50 came to 24 µM. This IC50 is about 2.1-fold lower than that of the compound before. For the compound `O=C(O)C1CN(C2CCC(P(=O)(O)O)C2)CCN1` (configuration not stated), the IC50 was 1.6 µM. Compound `NC(C[S+]([O-])CP(=O)(O)O)C(=O)O` (configuration not stated) returned an IC50 of 0.14 µM. Compound `O=C(O)C1CN(Cc2cccc(P(=O)(O)O)c2)CCN1` (configuration not stated) yielded an IC50 of 83 µM.

Regarding `O=C(O)CNCc1cccc(CP(=O)(O)O)c1`, the IC50 was 2.2 µM. With `O=C(O)C1Cc2c(cccc2CP(=O)(O)O)CN1` (configuration not stated), the IC50 turned out to be 1.95 µM.

For `O=C(O)C1CC(CP(=O)(O)O)C2CCCCC2N1` (configuration not stated), the IC50 came out at 9.2 µM. On to `NC(Cc1cccc(CP(=O)(O)O)c1)C(=O)O` (configuration not stated), for which the IC50 came to 2.8 µM.

`O=C(O)C1Cc2c(cccc2P(=O)(O)O)CN1` (configuration not stated) had an IC50 of 0.82 µM. Compared with the last compound, the IC50 is about 3.4-fold lower. Same read-out and setting: then `NC(C(=O)O)c1ccc(CCCP(=O)(O)O)cc1` (configuration not stated), with above 100 µM; and `NC(C(=O)O)c1cc(=O)[nH]o1` (configuration not stated), with 10 µM; and `NC(C(=O)O)c1ccc(CP(=O)(O)O)c2ccccc12` (configuration not stated), with 74 µM. In turn, `O=C(O)CCCN1CCN[C@@H](C(=O)O)C1` had an IC50 of 0.79 µM. Take `O=C(O)C1CC(CCP(=O)(O)O)C2CCCCC2N1` (configuration not stated): the IC50 is 100 µM. This IC50 lies about 130-fold higher than the previous one.

Compound `O=C(O)C1NCCc2ccc(P(=O)(O)O)cc21` (configuration not stated) returned an IC50 of 2.7 µM.

Turning to `NC(Cc1cccc(CCP(=O)(O)O)c1)C(=O)O` (configuration not stated), the IC50 is above 100 µM. Consider `NC(Cc1ccc(P(=O)(O)O)cc1)C(=O)O` (configuration not stated), for which the IC50 was above 100 µM.

`NC(CCCC(=O)O)C(=O)O` (configuration not stated) had an IC50 of 13 µM. This lies in the double-digit micromolar range. The compound `O=C(O)C1Cc2cc(CP(=O)(O)O)ccc2CN1` (configuration not stated) yielded an IC50 of 4.08 µM.

Compound `O=C(O)CNCc1ccccc1CP(=O)(O)O` showed an IC50 above 100 µM. The compound `NC(C(=O)O)c1ccc(CP(=O)(O)O)s1` (configuration not stated) returned an IC50 of 0.66 µM. Turning to `O=C(O)[C@H]1CN(C(c2ccccc2)P(=O)(O)O)CCN1` (some centres not stated), the IC50 amounted to 5.8 µM. As for `NC(Cc1ccccc1P(=O)(O)O)C(=O)O` (configuration not stated), the IC50 was above 100 µM. Compound `Cc1cc(CP(=O)(O)O)cc(C(=O)O)n1` displayed an IC50 of 10 µM. Still for that read-out and setting: in the case of `O=C(O)C1CN(CCCP(=O)(O)O)CCN1` (configuration not stated) it was 0.082 µM; in that of `NC(C#CP(=O)(O)O)C(=O)O` (configuration not stated), 0.45 µM. Consider `O=P(O)(O)CCCN1CCNCC1`, for which the IC50 is above 100 µM. The same measure, in the same setting: in the case of `O=C(O)C1CC(CP(=O)(O)O)c2ccccc2N1` (configuration not stated) it was 0.85 µM. `NC(C(=O)O)c1ccc(CP(=O)(O)O)o1` (configuration not stated) gave an IC50 of 5.9 µM. On the same count and under the same terms, in the case of `O=C(O)Cc1cccnc1C(=O)O` it was 10 µM; in that of `NC(Cc1ccc(CP(=O)(O)O)cc1)C(=O)O` (configuration not stated), above 100 µM.

A further experiment has as its target T1, Glutamate NMDA receptor (Rattus norvegicus). Kind of experiment: Ability to displace [3H]CPP from NMDA receptor in rat brain membrane was evaluated at 10e-4 M. The experiment is classed as cell membranes.
Turning to `O=C(O)C1Cc2ccc(CP(=O)(O)O)cc2CN1` (configuration not stated), the inhibition was found to be 0%. As for `O=C(O)C1Cc2ccc(CCP(=O)(O)O)cc2CN1` (configuration not stated), the inhibition stood at 0%. `NC(C(=O)O)c1cccc(CCP(=O)(O)O)c1` (configuration not stated): the inhibition worked out at 35%. On the same count and under the same terms, in the case of `O=C(O)C1Cc2ccc(P(=O)(O)O)cc2CN1` (configuration not stated) it was 0%. In the case of `NC(Cc1ccccc1P(=O)(O)O)C(=O)O` (configuration not stated), the inhibition was found to be 3%.

By IC50 is commonly meant the concentration at which inhibition is half-maximal. Low values mean greater potency in that assay, high ones weaker potency in that assay. For orientation: inhibition means the change of the read-out against control, counted positive when it falls. Read a low inhibition as little suppression.

The values above are taken from ChEMBL document CHEMBL1125432, “Generation of N-methyl-D-aspartate agonist and competitive antagonist pharmacophore models. Design and synthesis of phosphonoalkyl-substituted tetrahydroisoquinolines as novel antagonists” (J Med Chem, 1992).
